Source: patent US12285459B2, “Saposin-A derived peptides and uses thereof” (CHILDREN'S MEDICAL CENTER CORPORATION, priority 2011, dated 2025)
“Also recorded” adds a separate entry of the source.

Legend:
[1] = test system: Tsp-1 in white blood cells; assay: Tsp-1 protein in white blood cells of peptide-injected mice, Western blot; assay type: in vivo; conditions: 5 day I.P. injections, 30 mg/kg
Experimental: Mice were injected with DWLPK (SEQ ID NO: 4) or a scramble peptide using 5 day I.P. injections with 30 mg/kg peptide. White blood cells were isolated, protein was extracted, and a Western blot was performed measuring Tsp-1 protein.

[2] = test system: Tsp-1 and p53 expression in prostate fibroblasts; assay: Tsp-1 and p53 expression in prostate fibroblasts treated with peptides, western blot; assay type: cell-based; conditions: FIG. 2; compared with the longer peptide of the 35-40 region
Experimental: Methods of assaying the effects of a polypeptide described herein on Tsp-1 and p53 expression are described herein. Briefly, a control Psap alongside a test polypeptide, is applied to a cell culture of prostate fibroblasts. The conditioned media from PC3M-LN4 (LN4) and PC3 cells are used as controls, with PC3 as positive/stimulating control and LN4 as negative/inhibiting controls. After a period of incubation (˜16 h), the cells are harvested, rinsed, and lysed. The lysates are analyzed for the level of Tsp-1 and p53 expression by western blot analyses, with β-actin as the internal lysate protein loading control.
These peptides were used to treat prostate and lung fibroblasts in vitro at a concentration of 10 ug/mL for 16 hours in ATCC-specified media supplemented with 0.1% FBS. Tsp-1 and p53 expression was analyzed by western blot as described previously (Kang, Y., et al., (2003) Cancer Cell 3:537-549.)

[3] = test system: PC3M-LN4 prostate cancer cells; assay: Orthotopic PC3M-LN4 prostate tumor model; assay type: in vivo, SCID mice; conditions: 30 mg/kg/day i.p. from day 26 for 16 days; PBS control
Experimental: C57Bl6 SCID mice were injected with 1×10^6 PC3M-LN4 prostate cancer cells in the prostate gland as described previously (Kang et al). After 26 days the animals were treated with either PBS or peptides corresponding to residues 36-40 or 36-39 of saposin A at a dose of 30 mg/kg/day via intraperitoneal (i.p.) injection. After 16 days of treatment all animals were sacrificed, prostate tumors were weighed and harvested, along with the lungs of animals. Tissues were either fixed in NBF, or lysed and analyzed for Tsp-1 and p53 expression by western blot analysis.
The peptides were then tested for their ability to inhibit tumor growth and metastasis in three models, the PC3M-LN4 prostate cancer model, the B16-B6 melanoma model and the Lewis Lung Carcinoma (LLC) model. 1×10^6 PC3M-LN4 cells were first injected into the prostate gland of SCID mice. After 26 days these mice were treated with either PBS alone or the 4- or 5-amino acid peptide at a dose of 30 mg/kg/day via i.p. injection. The mice were treated for 16 days after which the mice were examined the size of the tumors and the expression of Tsp-1 and p53 in the primary tumors and lungs of the animals. The tumors in animals treated with the 4- and 5-amino acid peptides were, on average, 45% and 40% the size of control animals, respectively (FIG. 6).

[4] = test system: Tsp-1 and p53 expression in lungs; assay: Tumor-free mice given PC3M-LN4 conditioned media plus peptide; Tsp-1/p53 in tissue by western blot; assay type: in vivo, C57Bl6 mice; conditions: PC3M-LN4 CM in combination with peptide; Western blot, FIG. 3
Experimental: For tumor-free analysis C57Bl6 mice were treated with 200 uL of PC3M-LN4 media alone or in combination with peptides described above at dose of 30 mg/kg/day for 5 days. After treatment the animals were sacrificed and the lungs were harvested, lysed and analyzed for Tsp-1 and p53 protein levels as described previously (Kang et al).
It was sought to determine whether there was a smaller domain within saposin A that contained the p53/Tsp-1 stimulating activity. […] C57Bl6 mice (5-6 wks old) were injected daily with 300 uL of serum free DMEM, conditioned media (CM) from non-metastatic PC3 cells, CM from metastatic PC3M-LN4 cells and PC3M-LN4 CM plus 30 mg/kg of the pegylated 6 amino acid polypeptide (PEG2000-CDWLPK (SEQ ID NO: 46)) or 30 mg/kg of the pegylated 18 amino acid polypeptide (PEG2000-[…] (SEQ ID NO: 47)). After 9 days the mice were euthanized and the lungs and livers harvested and either fixed in formalin or lysed for Western blot analysis.
Finally, the effect of substituting D-amino acids at different residues of the 4-amino acid peptide was analyzed. By Western blot analysis it was observed that substituting the first and third or second and fourth residues, in combination, had no effect on the Tsp-1 stimulating activity in vitro. These peptides were then tested in the tumor-free animal model described above. The normal 4-amino acid peptide and the D-amino acid substituted peptides were injected in combination with conditioned media from PC3M-LN4 cells in adult C57Bl6 mice for 4 days at a dose of 10 or 30 mg/kg/day via i.p. injection. Mice were sacrificed 24 hours after the treatment on day 4. The lungs of these mice were harvested and analyzed the Tsp-1 expression by Western blot analysis. […]
Methods: 18 C57Bl6 mice were injected with Ac-dWlP-amide (SEQ ID NO: 132) at a dose of 30 mg/kg in a volume of 100 μL via intraperitoneal (i.p) injections in serum starved conditioned media from PC3M-LN4 prostate cancer cells. […] The relative intensity of the Tsp-1 (normalized to β-Actin) bands were determined using a Bio-Rad Chemi-Doc XRS system.

For “DWLPK [5-amino acid peptide corresponding to residues 36-40 of saposin A]”, the “Tsp-1 protein in white blood cells” value [1] was “upregulated; also recorded: increased Tsp-1 expression”, the “ability to stimulate Tsp-1 in prostate fibroblasts after removing a terminal residue” value [2] was “increased the ability of the resulting 5-amino acid peptide to stimulate Tsp-1” and the “prostate tumor size relative to control animals” value [3] was 40%. The “Tsp-1 and p53 expression in the lungs above basal levels” value [4] was 6 fold.
